# Changes are numbered by the printed parent chain. Numbered stars: 1 amine (or outer) side, 2 acyl side, 3 side chain; on linkers, the order of the positions; unused ones are H or OH. Bridge positions count the residues as written; N and C are the ends. Square brackets hold non-standard residues; d marks the D form. Peptide text beside a SMILES is read from it. X2 = CC(=O)NC(C(=O)OC(C(C)C)C(N[*:1])C(=O)[*:2])C(O)C(C)C; PhLac = O=C(O)[CH](O)Cc1ccccc1; NMeT = CN[CH](C(=O)O)[CH](C)O; NMeA = CN[CH](C)C(=O)O; NMeDha = C=C(NC)C(=O)O
# Legend:
# Test in all cases: cell-based
# Conditions in all cases: read-out: YM pIC50 (converted)
# Gα16 (G16 WT) C196P = target: T1, Gα16 (G16 WT) C196P (Homo sapiens, UniProt P30679, C196P); design: species or system HEK293 Gαq/Gα11-null (CRISPR/Cas9)
# T1 construct: gene GNA15; human Gα16 cDNA in pcDNA3.1(+), expressed in CRISPR/Cas9 Gαq/Gα11-null HEK293 cells (transient); endogenous Gβγ
# T1 sequence (P30679 1-374 C196P): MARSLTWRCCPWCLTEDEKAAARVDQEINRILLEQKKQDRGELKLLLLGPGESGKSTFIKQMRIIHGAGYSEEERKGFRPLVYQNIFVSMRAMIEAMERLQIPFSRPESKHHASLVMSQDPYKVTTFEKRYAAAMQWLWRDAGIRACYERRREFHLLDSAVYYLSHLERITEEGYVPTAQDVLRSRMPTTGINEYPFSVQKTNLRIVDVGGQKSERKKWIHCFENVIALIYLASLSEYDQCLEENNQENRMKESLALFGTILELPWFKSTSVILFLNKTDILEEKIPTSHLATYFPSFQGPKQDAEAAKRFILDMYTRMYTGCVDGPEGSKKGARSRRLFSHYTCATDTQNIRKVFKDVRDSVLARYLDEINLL
# Method: (§1) Successful mutations were verified by DNA sequencing. Subconfluent cell cultures were transiently transfected with the respective expression plasmids using the polyethylenimine reagent (Polysciences, Warrington, PA) following the protocol provided by the manufacturer. All data were analyzed using GraphPad Prism 8.0.0 (GraphPad Inc., La Jolla, CA). Quantification of DMR signals was performed by calculation of the maximum responses. Data points from concentration-response or inhibition curves of individual functional experiments were fitted to the following four-parameter logistic function. (Eq. 1) Y=Bottom+(Top−Bottom)/1+10^(logEC50−x)slope Concentration-effect curves represented in figures were normalized by setting each experimental maximal effect as 100% response. All data are expressed as mean + or ± S.E. of at least three independent experiments performed in technical triplicates.
# Gα16 (G16 WT) E74D = target: T2, Gα16 (G16 WT) E74D (Homo sapiens, UniProt P30679, E74D); design: species or system HEK293 Gαq/Gα11-null (CRISPR/Cas9)
# T2 construct: gene GNA15; human Gα16 cDNA in pcDNA3.1(+), expressed in CRISPR/Cas9 Gαq/Gα11-null HEK293 cells (transient); endogenous Gβγ
# T2 sequence (P30679 1-374 E74D): T1 sequence (P30679 1-374 C196P) with E74D, P196C
# Method: as §1
# Gα16 (G16 WT) M187V = target: T3, Gα16 (G16 WT) M187V (Homo sapiens, UniProt P30679, M187V); design: species or system HEK293 Gαq/Gα11-null (CRISPR/Cas9)
# T3 construct: gene GNA15; human Gα16 cDNA in pcDNA3.1(+), expressed in CRISPR/Cas9 Gαq/Gα11-null HEK293 cells (transient); endogenous Gβγ
# T3 sequence (P30679 1-374 M187V): T1 sequence (P30679 1-374 C196P) with M187V, P196C
# Method: as §1
# Gα16 (G16 WT) S185V = target: T4, Gα16 (G16 WT) S185V (Homo sapiens, UniProt P30679, S185V); design: species or system HEK293 Gαq/Gα11-null (CRISPR/Cas9), transfected Gα
# T4 construct: gene GNA15; human Gα16 cDNA in pcDNA3.1(+), expressed in CRISPR/Cas9 Gαq/Gα11-null HEK293 cells (transient); endogenous Gβγ
# T4 sequence (P30679 1-374 S185V): T1 sequence (P30679 1-374 C196P) with S185V, P196C
# Method: Quantification of DMR signals was performed by calculation of the maximum responses. Data points from concentration-response or inhibition curves of individual functional experiments were fitted to the following four-parameter logistic function. (Eq. 1) Y=Bottom+(Top−Bottom)/1+10^(logEC50−x)slope Concentration-effect curves represented in figures were normalized by setting each experimental maximal effect as 100% response. All data are expressed as mean + or ± S.E. of at least three independent experiments performed in technical triplicates. […] Because none of our mutant proteins were […], we searched for additional residues that, when mutated, may incur activity loss for the two depsipeptides. We focused our attention on residues that (i) differed between Gαq and Gα16, (ii) were not addressed previously by mutagenesis, and (iii) were located on both linkers, including adjacent regions, to either directly interact with the depsipeptides (if side-chain or Gα atoms were within 5 Å to YM) or to be close enough to assist in stabilizing the inhibitor–protein interactions. Aspartate 71 (Asp-71) and valine 182 (Val-182) fulfilled these criteria (Fig. 3A; see also Fig. 2A): Asp-71 is part of an aspartic acid–arginine salt bridge that likely provides the interface between the depsipeptides and linker 1 by stabilizing and maintaining the inhibitor–linker 1 spacing (Fig. 3B). […]
smiles,measurement,setting,value
"C=C1C(=O)NC(C)C(=O)N(C)C(C)C(=O)NC(C(OC(=O)C(NC(C)=O)C(O)C(C)C)C(C)C)C(=O)N(C)C(C(C)OC)C(=O)OC(C)C(NC(C)=O)C(=O)OC(Cc2ccccc2)C(=O)N1C (stereo not shown) [YM, YM-254890] (Ac-T[PhLac][NMeDha]A[NMeA][X2][NMeT](Me); ester 1-C; configuration not given here)",IC50,Gα16 (G16 WT) C196P,> 1000 µM
same,IC50,Gα16 (G16 WT) E74D,> 1000 µM
same,IC50,Gα16 (G16 WT) M187V,> 1000 µM
same,IC50,Gα16 (G16 WT) S185V,~316 µM
